Molecular target: T1, HDAC10 (Homo sapiens, UniProt Q969S8)
T1 sequence (Q969S8 1-669): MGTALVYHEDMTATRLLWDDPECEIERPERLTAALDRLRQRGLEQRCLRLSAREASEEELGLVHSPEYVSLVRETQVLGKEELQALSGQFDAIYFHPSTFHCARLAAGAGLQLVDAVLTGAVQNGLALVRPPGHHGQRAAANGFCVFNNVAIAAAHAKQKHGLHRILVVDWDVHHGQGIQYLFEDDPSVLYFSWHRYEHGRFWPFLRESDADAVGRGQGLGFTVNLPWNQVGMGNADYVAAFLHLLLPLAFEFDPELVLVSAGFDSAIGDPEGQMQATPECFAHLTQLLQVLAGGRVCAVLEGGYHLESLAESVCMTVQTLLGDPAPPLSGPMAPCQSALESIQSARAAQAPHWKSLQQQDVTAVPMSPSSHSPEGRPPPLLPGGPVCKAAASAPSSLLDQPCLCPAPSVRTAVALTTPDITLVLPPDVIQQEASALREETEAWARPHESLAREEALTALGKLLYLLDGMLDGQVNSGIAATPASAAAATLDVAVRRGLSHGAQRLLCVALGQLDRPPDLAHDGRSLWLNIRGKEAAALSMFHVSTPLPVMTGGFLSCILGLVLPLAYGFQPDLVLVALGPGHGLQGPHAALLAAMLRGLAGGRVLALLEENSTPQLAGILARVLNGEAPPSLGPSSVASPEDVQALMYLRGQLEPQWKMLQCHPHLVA
Experiment: Biochemical assay for HDAC inhibition, HDAC10
Conditions: read-out: IC50 HDAC10; Table 1, purified enzyme; unit inferred

IC50: 6.75 nM
SMILES: Cn1cc(CNCC2CCN(c3ncc(C(=O)NO)cn3)CC2)c2ccccc21 [quisinostat]

From publication PMC11249012 (Journal of Medicinal Chemistry, 2024)
